Experimental findings from patent US20240083917A1, “Polycyclic Kinase Inhibitor” (priority 2021, published 2024) are described below.

For the experiment, the target named is DNA-PK (Homo sapiens (Human), UniProt P78527). As to the kind of experiment: In vitro enzymatic activity, ADP-Glo Kinase Assay. The format is biochemical. The note with it: starting concentration 1 μM, 10 concentrations. As to the method: Test substances: the compounds of the present disclosure, whose structural formulas and preparation methods are shown in the Examples.
1. Preparation of 1-Fold Kinase Buffer
1) The detection starting concentration of the compound was 1 μM, and it was prepared to a 100-fold concentration, namely 100 μM. 2 μl of […] was taken, 198 μl of 100% DMSO was added, and it was prepared into 100 μM compound solution. 100 μl of the compound of 100-fold concentration was added to a second well on a 96-well plate, and 60 μl of 100% DMSO was added to other wells. 30 μl of the compound was taken from the second well and added to a third well, it was diluted downwards sequentially by 3 times, and there was a total of 10 concentrations diluted.
2) 100 μl of 100% DMSO and positive control wortmannin with the highest concentration (400 nM) were transferred to two empty wells as a Max well and a Min well respectively.
3) 50 nl of the compound was transferred to a 384-well plate by Echo.
3. Preparation of 2× Kinase Solution
1) The 1-fold kinase buffer was used to prepare 2-fold DNA-PK kinase solution.
2) 2.5 μl of the 2-fold kinase solution was transferred to a reaction well of the 384-well plate.
3) It was shaken, mixed uniformly, and still placed at a room temperature.
4. Preparation of 2× Substrate Solution
1) The 1-fold kinase buffer was used to prepare 2-fold substrate solution.
2) 2.5 μl of the 2-fold substrate solution was transferred to the reaction well of the 384-well plate for a starting reaction.
3) It was shaken, and mixed uniformly.
5. Kinase Reaction and Termination
1) The 384-well plate was covered by a cover, and incubated at 28° C for 3 hours.
2) 5 μl of ADP-Glo reagent was transferred, and incubated at 28° C. for 2 hours.
6. Detection of Reaction Result
1) 10 μl of a kinase detection reagent was transferred into the reaction well of the 384-well plate for terminating the reaction.
2) It was still placed at the room temperature for 30 minutes.
Sample values were read on Envision.
8. Inhibition Rate Calculation
1) Data was copied from Envision.
2) It was converted into inhibition rate data.
Inhibition percentage=(max-conversion)/(max-min)*100. Wherein, max refers to the conversion rate of a DMSO control, min refers to the conversion rate of a control without enzyme activity, and conversion refers to the conversion rate of the test compound at each concentration.
3) The data was imported into MS Excel and XLFit excel add-in version 5.4.0.8 was used for curve fitting.
A general note: In ADP-Glo the light output rises with the ADP produced.
`Cc1cc2ncnn2cc1Nc1ncc2c(n1)N1C(=NCC13CCOC3)N2C` (stereo not shown) [Compound 18, 5′-methyl-N-(7-methyl-[1,2,4]-triazolo[1,5-a]pyridin-6-yl)-4,5,5′,7′-tetrahydro-2-H-spiro[furan-3, 8′-imidazo[1,2-e]purin]-2′-amine] showed a 50% inhibitory concentration (IC50) of 1.4 nM.
In the case of `Cc1cc2ncnn2cc1Nc1ncc2c(n1)N1C(=NCC13CCC(F)(F)CC3)N2C` [Compound 5, 4,4-difluoro-5″-methyl-N-(7-methyl-[1,2,4]-triazolo[1,5-a]pyridin-6-yl)-5′,7′-dihydrospiro[cyclohexane-1,8′-imidazo[1,2-e]purine]-2′-amine] it was 1.63 nM; in that of `Cc1cc2ncnn2cc1Nc1ncc2c(n1)N1C(=NCC13CCOCC3)N2C` [Compound 1, 5-methyl-N-(7-methyl-[1,2,4]triazolo[1,5-a]pyridin-6-yl)-2′,3′,5,5′,6′,7-hexanydrospiro[imidazo[1,2-e]purine-8,4′-pyran]-2-amine], 0.82 nM; in that of `Cc1cc2ncnn2cc1Nc1ncc2c(n1)N1C(=NCC13CCCOCC3)N2C` (stereo not shown) [Compound 19, 5methyl-N-(7-methyl-[1,2,4]triazolo[1,5-a]pyridin-6-yl)-5,7-dihydrospiro[imidazo[1,2-e]purine-8,4′-oxepan]-2-amine], 1.6 nM.
In the case of `Cc1cc2ncnn2cc1Nc1ncc2nc3n(c2n1)C1(CCOCC1)CN3` [Compound 3, N-(7-methyl[1,2,4]-triazolo[1,5-a]pyridin-6-yl)-2′,3′,5′,6,6′,7-hexahydrospiro[imidazo[1,2-e]purine-8,4′-pyran]-2-amine] it was 10.6 nM.
The figure for `Cc1cc2ncnn2cc1Nc1ncc2c(n1)N1C(=NCC13CCS(=O)(=O)CC3)N2C` [Compound 9, 5-methyl-2-((7-methyl-[1,2,4]-triazolo[1,5-a]pyridin-6-yl)amino)-2′,3′,5,5′,6′,7-hexahydrospiro[imidazo[1,2-e]purine-8,4′-thiopyran]1′,1′-dioxide] is 21 nM; for `COC1CCC2(CC1)CN=C1N(C)c3cnc(Nc4cn5ncnc5cc4C)nc3N12` (single isomer, unassigned) [Compound 16-1, 4-methoxy-5′-methyl-N-(7-methyl-[1,2,4]triazolo[1,5-a]pyridin-6-yl)-5′,7′-dihydrospiro[cyclohexane-1,8′-imidazo[1,2-e]purin]-2′-amine] it is 3 nM; for `Cc1cc2ncnn2cc1Nc1ncc2c(n1)N1C(=NCC13CCSCC3)N2C` [Compound 8, 5-methyl-N-(7-methyl-[1,2,4]triazolo[1,5-a]pyridin-6yl)-2′,3′,5,5′,6′,7-hexahydrospiro[imidazo[1,2-]purine-8,4′thiopyran]-2-amine] it is 0.89 nM.
For `Cc1cc2ncnn2cc1Nc1ncc2c(n1)N1C(=NCC1(C)CCO)N2C` (stereo not shown) [Compound 17, 2-(5,8-dimethyl-2-((7-methyl-[1,2,4]-triazolo[1,5-a]pyridin-6-yl)amino)-7,8-dihydro-5H-imidazo[1,2-e]purin-8-yl) ethan-1-ol], the IC50 came to 9.8 nM.
In the case of `COC1CCC2(CC1)CN=C1N(C)c3cnc(Nc4cn5ncnc5cc4C)nc3N12` (single isomer, unassigned) [Compound 16-2, 4-methoxy-5′-methyl-N-(7-methyl-[1,2,4]triazolo[1,5-a]pyridin-6-yl)-5′,7′-dihydrospiro[cyclohexane-1,8′-imidazo[1,2-e]purin]-2′-amine] it was 2.2 nM; in that of `Cc1cc2ncnn2cc1Nc1ncc2c(n1)N1C(=NCC13CCC(O)CC3)N2C` (single isomer, unassigned) [Compound 7-2, 5′-methyl-2′-((7-methyl-[1,2,4]-triazolo[1,5-a]pyridin-6-yl)amino)-5′,7″-dihydrospiro[cyclohexane-1,8′-imidazo[1,2-e]purine]-4-ol], 0.72 nM.
In the case of `Cc1cc2ncnn2cc1Nc1ncc2c(n1)N1C(=NCC13CC[S+]([O-])CC3)N2C` (stereo not shown) [Compound 20, 5-methyl-2-((7-methyl-[1,5-a]pyridin-6-yl)amino)-2′,3′,5,5′,6′,7-hexanydrospiro[imidazo[1,2-e]purine-8,4′-thiopyran]-1′-oxide] it was 18.7 nM.
`Cc1cc2ncnn2cc1Nc1ncc2nc3n(c2n1)C1(CCOCC1)CN3C` [Compound 2, 6-methyl-N-(7-methyl-[1,2,4]triazolo[1,5-a]pyridin-6yl)-2′,3′,5′,6,6′,7-hexahydrospiro[imidazo[1,2-e]purine-8,4′-pyran]-2-amine] yielded a half-inhibitory concentration (IC50) of 22 nM.
In the case of `Cc1cc2ncnn2cc1Nc1ncc2c(n1)N1C(=NCC13CCC(=O)CC3)N2C` [Compound 6, 5′-methyl-2-((7-methyl-[1,2,4]-triazolo[1,5-a]pyridin-6-yl)amino)-5′,7′-dihydrospiro[cyclonexane-1,8′-imidazo[1,2-e]purine]-4-one] it was 4.8 nM; in that of `COC1(C)CCC2(CC1)CN=C1N(C)c3cnc(Nc4cn5ncnc5cc4C)nc3N12` (stereo not shown) [Compound 15-1, 4-methoxy-4,5′-dimethyl-N-(7-methyl-[1,2,4]triazolo[1,5-a]pyridin-6H)-5′7′-dihydrospiro[cyclohexane-1,8′-imidazo[1,2-e]purin]-2′-amine], 1.37 nM; in that of `Cc1cc2ncnn2cc1Nc1ncc2c(n1)N1C(=NC[C@]13CCCOCC3)N2C` [Compound 19-2], 1.7 nM.
`Cc1cc2ncnn2cc1Nc1ncc2c(n1)N1C(=NCC13CCC(O)CC3)N2C` (single isomer, unassigned) [Compound 7-1, 5′-methyl-2′-((7-methyl-[1,2,4]-triazolo[1,5-a]pyridin-6-yl)amino)-5′,7″-dihydrospiro[cyclohexane-1,8′-imidazo[1,2-e]purine]-4-ol] showed a concentration for half-maximal inhibition (IC50) of 0.62 nM.
In the case of `Cc1cc2ncnn2cc1Nc1ncc2c(n1)N1C(=NC[C@@]13CCCOCC3)N2C` [Compound 19-1] it was 1.1 nM.
In the case of `Cc1cc2ncnn2cc1Nc1ncc2c(n1)N1C(=NCC13CCCCC3)N2C` [Compound 4, 5′-methyl-N-(7-methyl-[1,2,4]triazolo[1,5-a]pyridin-6-yl)-5′,7′-dihydrospiro[cyclonexane-1,8′-imidazo[1,2-e]purine]-2′-amine] it was 0.8 nM.

In general, IC50 refers to the midpoint of a concentration-inhibition curve. A high value points to a need for much substance.
